The results in this text go back to patent publication US20230043863A1, “HETEROAROMATIC DERIVATIVES FOR USE AS REGULATOR, PREPARATION METHOD THEREFOR AND USE THEREOF” (JIANGSU HANSOH PHARMACEUTICAL GROUP CO., LTD., priority 2018, published 2023).

One experiment addresses JAK1 (Homo sapiens, UniProt P23458). Kind of experiment: JAK kinase activity inhibition, TR-FRET (JAK1). The class given is biochemical. The note with it: TR-FRET kinase assay. The method, boiled down: (§1)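 Steps: compound dilutions added; JAK kinase (0.1-20 nM) in HEPES/MgCl2 buffer added; peptide substrate and ATP mix started the reaction, 0.5-5 h at room temperature; EDTA and labeled antibody added, 1-24 h further. IC50 derived from 620/665 nm signals by four-parameter nonlinear fitting.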
In general terms: TR-FRET usually uses a lanthanide donor and a delayed reading to cut background.

The next experiment has as its target TYK2 (Homo sapiens, UniProt P29597). Kind of experiment: JAK kinase activity inhibition, TR-FRET (TYK2). Format: biochemical. As to conditions: TR-FRET kinase assay. The method, boiled down:
as §1

Experiment [1] deals with JAK-STAT signal pathway of U266 cells. Kind of experiment: Inhibition of cellular JAK-STAT signal pathway (STAT3 phosphorylation) in U266 cells. The class given is cell-based, human. As to conditions: Homo sapiens, U-266, INF-a 1000 U/mL stimulation. As for the experimental part:
The objective of the test is to test the inhibitory activity of the compound on the cellular JAK-STAT signaling pathway.
U266 cell line was used in this experiment, by activating the JAK-STAT signaling pathway through INF-a stimulation, the inhibitory activity of the compound on its downstream STAT3 phosphorylation was detected, and the half inhibitory concentration IC50 of the compound on the JAK-STAT signaling pathway activity was obtained.
3-12 μL of U266 cell line was spread into the 384-well detection plate, and the number of cells in each well was 100-300 K, followed by addition of 2 μL of the compound solution serially diluted. The plate was incubated for 2 hours with shaking at 350 rpm at room temperature. After 2 hours, 2 μL of INF-a with a final concentration of 1000 U/mL was added. The plate was shaken at room temperature for 15 minutes. 2-5 μL (5×) LANCE Ultra Lysis Buffer 2 solution was added and the plate was shaken at room temperature for 2 hours. After 2 hours, 5 μL of LANCE Ultra Eu-labeled Anti-STAT3 Antibody (PerkinElmer) with a final concentration of 0.5 nM and LANCE Ultra ULight-labeled Anti-STAT3 Antibody (PerkinElmer) with a final concentration of 5 nM were added, and the plate was incubated overnight at room temperature. The fluorescence signal value at 665 nm of each well was measured with the microplate reader, and the inhibition rate was calculated from the fluorescence signal value. According to the inhibition rate of different concentrations, the IC50 of the compound was obtained by curve fitting.
The percentage inhibition data of the wells treated with the compound was calculated with the positive control wells (DMSO control wells) and negative control wells (no kinase added) on the plate {% inhibition rate=100-[(test compound value-negative control value)]/(Positive control value-negative control value)×100}. IC50 value was calculated by using GraphPad prism to fit the data of different concentrations and corresponding percentage inhibition rates to a 4-parameter non-linear logic formula.

Sequence of JAK1 (P23458 whole entry): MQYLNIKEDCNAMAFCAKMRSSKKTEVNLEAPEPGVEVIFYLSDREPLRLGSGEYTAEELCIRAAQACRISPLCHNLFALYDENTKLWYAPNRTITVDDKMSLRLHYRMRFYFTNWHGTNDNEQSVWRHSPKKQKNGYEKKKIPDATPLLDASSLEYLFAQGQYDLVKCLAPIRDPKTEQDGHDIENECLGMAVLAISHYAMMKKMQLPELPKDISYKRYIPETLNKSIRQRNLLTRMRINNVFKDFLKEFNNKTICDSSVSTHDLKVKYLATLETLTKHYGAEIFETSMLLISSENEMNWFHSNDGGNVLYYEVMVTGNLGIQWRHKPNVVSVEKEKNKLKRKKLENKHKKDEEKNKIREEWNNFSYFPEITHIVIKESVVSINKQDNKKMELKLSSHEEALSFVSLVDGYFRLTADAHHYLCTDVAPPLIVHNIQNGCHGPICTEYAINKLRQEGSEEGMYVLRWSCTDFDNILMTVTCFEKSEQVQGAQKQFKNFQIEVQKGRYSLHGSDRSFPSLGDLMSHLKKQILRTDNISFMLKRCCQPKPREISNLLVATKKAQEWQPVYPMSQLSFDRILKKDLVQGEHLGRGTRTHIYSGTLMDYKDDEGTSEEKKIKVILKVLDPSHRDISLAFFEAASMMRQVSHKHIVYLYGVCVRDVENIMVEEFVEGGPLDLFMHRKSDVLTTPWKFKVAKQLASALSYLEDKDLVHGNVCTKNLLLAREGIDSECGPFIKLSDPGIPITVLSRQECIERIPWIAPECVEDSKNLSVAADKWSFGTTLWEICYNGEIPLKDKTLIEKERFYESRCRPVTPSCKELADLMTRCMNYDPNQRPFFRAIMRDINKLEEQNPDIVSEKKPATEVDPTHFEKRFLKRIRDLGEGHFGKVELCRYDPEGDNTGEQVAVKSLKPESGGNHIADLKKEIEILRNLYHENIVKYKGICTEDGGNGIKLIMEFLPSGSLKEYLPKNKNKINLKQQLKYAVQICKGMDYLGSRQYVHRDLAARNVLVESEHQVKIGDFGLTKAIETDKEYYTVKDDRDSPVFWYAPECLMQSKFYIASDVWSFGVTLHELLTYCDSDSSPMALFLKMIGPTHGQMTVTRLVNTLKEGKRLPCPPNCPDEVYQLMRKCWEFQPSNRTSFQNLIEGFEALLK
Sequence of TYK2 (P29597 whole entry): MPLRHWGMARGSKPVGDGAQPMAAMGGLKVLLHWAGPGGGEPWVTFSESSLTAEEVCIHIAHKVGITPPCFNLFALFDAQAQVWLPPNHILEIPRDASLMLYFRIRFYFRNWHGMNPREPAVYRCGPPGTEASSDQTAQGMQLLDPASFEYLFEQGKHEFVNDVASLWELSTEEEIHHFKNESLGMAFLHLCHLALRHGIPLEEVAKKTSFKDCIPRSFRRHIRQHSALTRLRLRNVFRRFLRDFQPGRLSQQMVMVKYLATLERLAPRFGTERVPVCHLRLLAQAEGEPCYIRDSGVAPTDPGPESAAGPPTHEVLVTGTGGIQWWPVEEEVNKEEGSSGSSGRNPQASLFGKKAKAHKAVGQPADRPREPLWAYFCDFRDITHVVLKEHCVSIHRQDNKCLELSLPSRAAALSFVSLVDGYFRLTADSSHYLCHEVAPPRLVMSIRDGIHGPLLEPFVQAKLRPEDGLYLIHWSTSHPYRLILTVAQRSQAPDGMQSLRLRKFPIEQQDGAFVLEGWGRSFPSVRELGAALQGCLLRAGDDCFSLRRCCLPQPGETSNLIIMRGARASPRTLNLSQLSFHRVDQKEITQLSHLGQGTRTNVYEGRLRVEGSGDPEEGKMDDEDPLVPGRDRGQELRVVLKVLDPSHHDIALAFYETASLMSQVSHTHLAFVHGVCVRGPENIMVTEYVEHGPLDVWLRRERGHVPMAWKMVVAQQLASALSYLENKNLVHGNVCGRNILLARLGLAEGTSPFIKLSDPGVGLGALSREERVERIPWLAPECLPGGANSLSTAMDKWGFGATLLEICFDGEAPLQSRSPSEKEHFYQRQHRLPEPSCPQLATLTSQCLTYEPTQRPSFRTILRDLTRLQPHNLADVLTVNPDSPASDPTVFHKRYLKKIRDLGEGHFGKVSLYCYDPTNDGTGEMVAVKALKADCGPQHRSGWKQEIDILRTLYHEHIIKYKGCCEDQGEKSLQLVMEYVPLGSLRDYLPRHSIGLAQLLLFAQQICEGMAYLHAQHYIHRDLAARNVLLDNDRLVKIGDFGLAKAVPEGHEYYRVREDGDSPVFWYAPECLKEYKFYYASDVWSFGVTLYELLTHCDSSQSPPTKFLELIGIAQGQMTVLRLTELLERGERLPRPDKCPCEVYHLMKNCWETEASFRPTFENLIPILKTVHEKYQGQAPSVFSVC

As a reminder, the IC50 is the concentration needed to halve the response being measured. As for `Cc1cc(Nc2nc(N[C@@H]3C[C@H]4CC[C@@H](C3)N4CCC#N)nc3cccnc23)n[nH]1` [Embodiment 174, 3-((3-exo)-3-((4-((5-methyl-1H-pyrazol-3-yl)amino)pyrido[3,2-d]pyrimidin-2-yl)amino)-8-azabicyclo[3.2.1]oct-8-yl)propionitrile], the values for the IC50 (at JAK1; on TYK2; in experiment [1]) were 2.73 nM, 1.88 nM and 0.42 nM, respectively.
Take `Cc1cc(Nc2nc(N[C@@H]3C[C@H]4CC[C@@H](C3)N4CC(=O)N(C)C)nc3ccsc23)n[nH]1` [Embodiment 293, N,N-dimethyl-2-((3-exo)-3-((4-((5-methyl-1H-pyrazol-3-yl)amino)thieno[3,2-d]pyrimidin-2-yl)amino)-8-azabicyclo[3.2.1]oct-8-yl)acetamide]: the half-inhibitory concentration (IC50) on JAK1 is 3.97 nM; at TYK2, 10.8 nM; in experiment [1] it was 16.5 nM.
The like results for `Cc1cc(Nc2nc(O[C@@H]3C[C@H]4CC[C@@H](C3)N4CCC#N)nc3sccc23)n[nH]1` [Embodiment 279, 3-((3-exo)-3-((4-((5-methyl-1H-pyrazol-3-yl)amino)thieno[2,3-d]pyrimidin-2-yl)oxo)-8-azabicyclo[3.2.1]oct-8-yl)propionitrile] were, in that order, 0.24 nM, 0.66 nM and 2.2 nM.
Consider `Cc1cc(Nc2nc(N[C@@H]3C[C@H]4CCC[C@@H](C3)N4Cc3ccccn3)nc3sccc23)n[nH]1` [Embodiment 271], for which the results for the half-maximal inhibitory concentration (IC50) (on JAK1; at TYK2; in experiment [1]) were 0.05 nM, 4.91 nM and 1.49 nM, respectively.
Consider `CN(c1nc(Nc2cc(CO)[nH]n2)c2ccc(Cl)cc2n1)[C@@H]1C[C@H]2CCC[C@@H](C1)N2CCC#N` [Embodiment 235, 3-((3-exo)-3-((7-chloro-4-((5-(hydroxymethyl)-1H-pyrazol-3-yl)amino)quinazolin-2-yl)(methyl)amino)-9-azabicyclo[3.3.1]non-9-yl)propionitrile], for which the IC50 was determined as 3.33 nM on JAK1, 2.71 nM on TYK2 and 44.4 nM in experiment [1].
For the compound `Cc1cc(Nc2nc(N[C@@H]3C[C@H]4CC[C@@H](C3)N4C(=O)CN(C)C)nc3ccsc23)n[nH]1` [Embodiment 287, 2-(dimethylamine)-1-((3-exo)-3-((4-((5-methyl-1H-pyrazol-3-yl)amino)thieno[3,2-d]pyrimidin-2-yl)amino)-8-azabicyclo[3.2.1]oct-8-yl)ethane-1-one], the IC50 was 0.58 nM at JAK1, 4.21 nM at TYK2 and 10.5 nM in experiment [1].
The like results for `CCc1cc(Nc2cc3ncccc3c(N[C@@H]3C[C@H]4CC[C@@H](C3)N4CCC#N)n2)n[nH]1` [Embodiment 11, 3-((3-exo)-3-((7-((5-ethyl-1H-pyrazol-3-yl)amino)-1,6-diazanaphthalen-5-yl)amino)-8-azabicyclo[3.2.1]oct-8-yl)propionitrile] were, in that order, 0.3 nM, 9.13 nM and 4.77 nM.
Turning to `Cc1cc(Nc2nc(N[C@@H]3C[C@H]4CC[C@@H](C3)N4S(=O)(=O)N3CC(C#N)C3)nc3cccnc23)n[nH]1` [Embodiment 220, 1-(((3-exo)-3-((4-((5-methyl-1H-pyrazol-3-yl)amino)pyrido[3,2-d]pyrimidin-2-yl)amino)-8-azabicyclo[3.2.1]oct-8-yl)sulfonyl)azetindin-3-formonitrile], the IC50 at JAK1 came to 0.67 nM; on TYK2, 4.27 nM; in experiment [1], 10.2 nM.
For `Cc1cc(Nc2nc(N(C)[C@@H]3C[C@H]4CC[C@@H](C3)N4S(=O)(=O)N3CC(C#N)C3)nc3sc(C)cc23)n[nH]1` [Embodiment 240, 1-(((3-exo)-3-(methyl(6-methyl-4-((5-methyl-1H-pyrazol-3-yl)amino)thieno[2,3-d]pyrimidin-2-yl)amino)-8-azabicyclo[3.2.1]oct-8-yl)sulfonyl)azetindin-3-formonitrile], the figures for the IC50 (on JAK1; on TYK2; in experiment [1]) were 0.49 nM, 0.68 nM and 14.4 nM, respectively.
The like results for `Cc1cc2nc(N[C@@H]3C[C@H]4CCC[C@@H](C3)N4CCC#N)nc(Nc3cc(CO)[nH]n3)c2s1` [Embodiment 294] were, in that order, 0.64 nM, 0.23 nM and 15.3 nM.
The like results for `Cc1cc(Nc2nc(N[C@@H]3C[C@H]4CC[C@@H](C3)N4S(=O)(=O)N3CC(C#N)C3)nc3cc(F)ccc23)n[nH]1` [Embodiment 215, 1-(((3-exo)-3-((7-fluoro-4-((5-methyl-1H-pyrazol-3-yl)amino)quinazolin-2-yl)amino)-8-azabicyclo[3.2.1]oct-8-yl)sulfonyl)azetindin-3-formonitrile] were, in that order, 0.12 nM, 0.27 nM and 24.1 nM.
The like results for `Cc1cc(Nc2cc3ncccc3c(N(C)[C@@H]3C[C@H]4CC[C@@H](C3)N4CCC#N)n2)n[nH]1` [Embodiment 111, 3-((3-exo)-3-(methyl(7-((5-methyl-1H-pyrazol-3-yl)amino)-1,6-diazanaphthalen-5-yl)amino)-8-azabicyclo[3.2.1]oct-8-yl)propionitrile] were, in that order, 5.69 nM, 1.63 nM and 2.93 nM.
For the compound `Cc1cc(Nc2nc(N[C@@H]3C[C@H]4CCC[C@@H](C3)N4S(=O)(=O)c3cccnc3)nc3sccc23)n[nH]1` [Embodiment 268], the half-inhibitory concentration (IC50) on JAK1 was determined as 0.21 nM; on TYK2 it was 0.19 nM; in experiment [1] it was 42.9 nM.
The like results for `Cc1cc(Nc2nc(NC3CCN(CCC#N)CC3)nc3ccccc23)n[nH]1` [Embodiment 310, 3-(4-((4-((5-methyl-1H-pyrazol-3-yl)amino)quinazolin-2-yl)amino)piperidin-1-yl)propionitrile] were, in that order, 8.67 nM, 0.26 nM and 5.41 nM.
